Measured values taken from patent US20240366756A1, “COMBINATIONS AND USES THEREOF” (Incyte Corporation, priority 2011, published 2024).
Marks after values point to notes of the source that are not given here.

T1: Human CD19 (human, UniProt P15391 20-556)
T1 sequence: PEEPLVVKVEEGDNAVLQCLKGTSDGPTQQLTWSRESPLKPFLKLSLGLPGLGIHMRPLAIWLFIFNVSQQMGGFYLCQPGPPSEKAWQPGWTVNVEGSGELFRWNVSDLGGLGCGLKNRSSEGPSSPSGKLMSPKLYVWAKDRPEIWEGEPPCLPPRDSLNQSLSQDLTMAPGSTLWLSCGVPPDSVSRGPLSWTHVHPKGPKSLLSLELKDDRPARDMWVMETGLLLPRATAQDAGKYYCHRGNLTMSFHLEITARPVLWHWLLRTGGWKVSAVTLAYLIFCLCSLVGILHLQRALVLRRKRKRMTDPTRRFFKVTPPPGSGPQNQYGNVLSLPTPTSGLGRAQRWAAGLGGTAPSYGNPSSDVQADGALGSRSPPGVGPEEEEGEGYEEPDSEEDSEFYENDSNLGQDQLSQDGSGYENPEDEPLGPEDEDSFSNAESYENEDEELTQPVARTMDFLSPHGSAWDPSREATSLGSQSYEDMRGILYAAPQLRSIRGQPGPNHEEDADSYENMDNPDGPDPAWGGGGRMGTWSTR


Experiments:
MEC-1 cells = test: Cytotoxicity/ADCC cell killing of MEC-1 cells with PBMCs (FACS, propidium iodide); assay type: cell-based, human; conditions: for normalized specific killing: combination set to 1, Bendamustine 100 μg/ml, MOR00208 6.6 pM; for % dead cells: MOR00208 6.6 pm, BEN 100 μg/ml (48 h pre-incubation), E:T 30:1, 4 h, control RefMab33
Description: MEC-1 cells: chronic B-cell leukemia cell line DSMZ #ACC497; Cell Medium: Iscove's Modified Dulbecco's Medium (IMDM) with GlutaMAX™, Invitrogen, Cat No.: 31980-048, 20% FCS; PBMCs: RPMI1640, with stabile Glutamine, PAN Biotech GmbH, Cat No.: P04-13500 supplemented with 10% FCS; Biocoll: Biochrome AG CAT No.: L6115 LOT No.: 1050T; Bendamustine: Mundipharma LOT No.: 88018; FCS: PAN CAT No.: 3302-P282403 LOT No.: P282403; and RefmAb33 (anti-RSV) with same Fc region as MOR00208.
The cytotoxicity of MOR00208 and bendamustine alone and in combination was tested in MEC-1 cells. BEN is an alkylating agent, therefore, functions via direct cytoxicity in MEC-1 cells. MOR00208 targets CD19 and additionally functions via ADCC in killing MEC-1 cells. For the following groups MEC-1 cell killing was measured: BEN at 100 μg/ml; MOR00208 at 6.6 pm and the combination of MOR00208 at 6.6 pm and BEN at 100 μg/ml. […] The following were used as controls: RefmAb33, or PBMCs alone. In both the BEN group and MOR00208+BEN combination group, MEC-1 cells were pre-incubated with BEN 48 hours prior to the ADCC assay measurements. The MEC-1 cells were stained using 1 mg/ml Calcein AM then counted and adjusted to 2×10^5/ml. The PBMCs were counted and adjusted to 6×10^6/ml. The cell killing assays were done as follows: using 96 well plates, a 100 μl cell suspension of MEC-1 cells was added per well, then 100 μl cell suspension of PBMCs was added to each well resulting in an E:T ratio of 30:1. The antibodies were diluted to 1 μg/ml in medium. Cells were centrifuged and re-suspended. To the target:effector cell-pellet, 100 μl antibody solution or according control solution was added. The mixture was incubated for 4 h in CO2-incubator at 37° C. The cell killing measurements were taken as follows: the incubated cell solution (˜100 μl) was transferred into FACS tubes and 200 μl FACS buffer (DPBS+3% FCS) and 0.5 μl PI stock solution was added to each tube. FACS-Calibur was used. Dead MEC-1 cells were stained with propidium iodide.
The values represent % dead cells. Each experiment represents PBMCs from different donors. The controls used for each experiment was RefMab33.
The values shown in Table 2 are calculated as follows: 1) from the raw data (% dead cells) shown in Table 1, the background (controls) were subtracted, resulting in the specific killing for each treatment group; then 2) the specific killing values were normalized by setting the combination of MOR00208+BEN to 1. The averages of Table 2 are depicted in FIG. 5.
[…] (CI) calculations were completed in order to determine synergy of the combination of the exemplified anti-CD19 antibody and bendamustine as compared to MOR00208 and BEN alone. Such calculations are described in Ting-Chao Chou, Theoretical Basis, Experimental Design, and Computerized Simulation of Synergism and Antagonism in Drug Combination Studies, Pharmacol Rev 58:621-681 (2006), which is incorporated by reference in its entirety and Chou T C, Talalay P, Quantitative analysis of dose-effect relationships: the combined effects of multiple drugs or enzyme inhibitors. Adv Enzyme Regul 22:27-55 (1984), which is incorporated by reference in its entirety. The methods of Chou-Talalay are carried out using the CI-isobol method.
The median-effect equation models of the effect of an inhibitor (such as a drug) as Fa/Fu=(D/D50)^m, where D is the dose, Fa and Fu is the fraction of the system affected and unaffected by the dose D (Fa+Fu=1); D50 is the dose producing the median effect (e.g. IC50, ED50, LD50). The constant m determines the shape of the dose-effect curve. We used Excel Fit software to carry out a linear regression calculation to estimate the parameters m and D50.
The effects of the combination on MEC-1 cells is measured % cell death as described above.

[1] = tested on: RAMOS human Burkitt's lymphoma cells; test: Human Non-Hodgkin RAMOS tumor in SCID mice, survival model; assay type: in vivo; conditions: for Median Survival (Days Post-Inoculation): treatment related deaths excluded; for Median % Increase in Lifespan (ILS): vs. vehicle control/Ref_mAb_33; for Survival, pairwise comparison (Holm-Sidak) vs. Group 3: Group 3 = Bendamustine (16 mg/kg), listed as Bendamustine = 13 mg/kg
Method: Cyclophosphamide (Baxter, Lot. No. 1A548C); Vehicle Control: 0.9% sodium chloride, 25 mg/ml mannitol, pH 6.5-6.8 (adjusted with 0.01 M NaOH); SCID Mice (University of Adelaide, Waite Campus, Urrbaraie, SA, Australia, Strain C.B.-17-Igh-1^b-Prkdc^scid); RAMOS human Burkitt's lymphoma cells (ATCC number CRL-1596); Ref_mAb_33_IgG_Xen (10 mg/mL in PBS, referred to as Ref_mAb_33); Bendamustine (Mundipharma, Lot No. 83889).
SCID mice were pre-treated with Cyclophosphamide (75 mg/kg, i.p., twice daily) for two days prior to RAMOS cell inoculation (Day −2 and −1). On the day of inoculation (Day 0), the mice were separated into seven groups of ten mice each, and inoculated with 1×10^6 RAMOS cells each intravenously into the tail vein. The planned dosing regimen for each group is shown in Table 5 and commenced on Day 3. The study duration was 60 days.
From the raw data shown in Table 6, both the median survival in days and median increase in lifespan were calculated. All treatment related deaths were excluded in the calculations.
Median % Increased Lifespan (ILS) is calculated as follows: […]
The classification of the MOR000208/Bendamustine combination therapy (combo) effect was evaluated by comparing the ILS of the combination with the added ILS of the respective monotherapies:
Synergy/Potentiation*: ILSCombo>ILSMOR00208 3 mg/kg+ILSBendamustine. Synergistic effects are classified as potentiation if at least one of the monotherapies has no effect. Additivity: ILSCombo=ILSMOR00208 3 mg/kg+ILSBendamustine. Antagonism: ILSCombo<ILSMOR00208 3 mg/kg+ILSBendamustine.
In addition to an analysis of the data for purposes of identifying synergy, the following statistical analysis was also completed. Statistical analyses were carried out using the median values. Any animal that died unexpectedly or was culled prior to Day 17 of the study in the Test Article treatment groups was excluded from survival analysis calculation. The death/culling of these animals was attributed to compound toxicity rather than disease progression as they occurred well in advance of the first deaths in the Vehicle Control animals. A survival curve was created using the product limit of Kaplan and Meier, and survival curves compared using the log-rank (Mantel-Cox) test. Where significant differences were found, All Pairwise Multiple Comparison (Holm-Sidak Test) was performed. Comparison was done between all groups. In addition the comparison of the following groups were summarised in separate figures for each test article: Vehicle Control/Ref_mAb (group 10) against Bendamustine groups (Groups 2, 3 and 4) and Vehicle Control/Ref_mAb (group 10) against Combination groups (Groups 5 and 6) or respective MOR00208 monotherapy group (group 1). A p value of less than 0.05 was considered significant.

Human CD19 = biological target: T1, Human CD19; test: cell-based or functional assay

Row | Molecule | normalized specific killing (MEC-1 cells; Average of experiments 1-3) | % dead cells (MEC-1 cells; Experiment 1 (PBMC donor)) | normalized specific killing (MEC-1 cells; Experiment 1, background subtracted) | % dead cells (MEC-1 cells; Experiment 2 (PBMC donor)) | normalized specific killing (MEC-1 cells; Experiment 2, background subtracted) | % dead cells (MEC-1 cells; Experiment 3 (PBMC donor)) | normalized specific killing (MEC-1 cells; Experiment 3, background subtracted) | EC50 (MEC-1 cells; Homo sapiens, MEC1, read-out: EC50 (MEC-1 cell killing)) | Bonferroni's Multiple Comparison Test Mean Diff. (MEC-1 cells; normalized specific killing, monotherapy vs. BEN + MOR00208 combination) | Median Survival (Days Post-Inoculation) ([1]; 13 mg/kg) | Median % Increase in Lifespan (ILS) ([1]; 13 mg/kg) | Median Survival (Days Post-Inoculation) ([1]; 16 mg/kg) | Median % Increase in Lifespan (ILS) ([1]; 16 mg/kg) | Survival, pairwise comparison (Holm-Sidak) vs. Group 3 ([1]; Table 8) | Survival, pairwise comparison (Holm-Sidak) vs. Group 3 ([1]; untitled repeat of Table 8) | EC50 of MEC-1 cell killing (ADCC with human PBMCs) (Human CD19)
1 | Cn1c(CCCC(=O)O)nc2cc(N(CCCl)CCCl)ccc21 [Bendamustine, reference compound] | 0.8 | 83.6% | 0.85 | 53.3% | 0.75 | 75.6% | 0.85 | ~100 µg/mL | −0.1834 | 24^b Days Post-Inoculation | −5.88% | 24^c Days Post-Inoculation | −5.88% | No (No: There is no statistically significant difference (p ≥ 0.05).) | No (No: There is no statistically significant difference (p ≥ 0.05).) | 
2 | MOR00208 (antibody, human IgG1, kappa, V domains shown) VH: EVQLVESGGGLVKPGGSLKLSCAASGYTFTSYVMHWVRQAPGKGLEWIGYINPYNDGTKYNEKFQGRVTISSDKSISTAYMELSSLRSEDTAMYYCARGTYYYGTRVFDYWGQGTLVTVSS VL: DIVMTQSPATLSLSPGERATLSCRSSKSLQNVNGNTYLYWFQQKPGQSPQLLIYRMSNLNSGVPDRFSGSGSGTEFTLTISSLEPEDFAVYYCMQHLEYPITFGAGTKLEIKR |  |  |  |  |  |  |  |  |  |  |  |  |  |  |  | ~6.6 pM
